# Results taken from patent US20220135678A1, “METHODS AND COMPOSITIONS TO IMPROVE THE SAFETY AND EFFICACY OF CELLULAR THERAPIES” (University of Southern California, priority 2019, published 2022).
# Experiments:
# [1] = test system: CD33 on hematopoietic stem cells and progenitor cells; assay: HSPC expressing AMR-dTAG or AMR-ShieldTag targeting CD33, in vitro; assay type: cell-based
# [2] = test system: Molm14 AML leukemia cells; assay: AMR-dTAG or AMR-ShieldTag HSPC transplanted into NSG mice with Molm14 cells, CD33 CAR-T; assay type: in vivo
# Excerpt: (§1) The transduced cells are also transplanted into NSG mice along with Molm14 AML leukemia cells.
# as §1
# [3] = test system: CD19 on RAJI (CD19+) cells; assay: CD19 surface expression on transduced RAJI cells, flow cytometry with PE-conjugated FMC63 antibody (antigen masking); assay type: cell-based
# Excerpt: A panel of CARs targeting CD19 were generated using antigen binding domains derived from FMC63 (SEQ ID NO: 205), hu-mROO5-1 (SEQ ID NO: 211) and CD19-MM (SEQ ID NO: 209) scFVs respectively. […] The constructs also co-expressed a puromycin resistance gene (PAC). The lentiviral vectors encoding the different CAR constructs were used to infect RAJI (CD19+) cells. The cells were selected with puromycin. Flow cytometry with PE-conjugated FMC63 antibody was used to detect the expression of CD19 on the surface of the CAR-expressing cells.
# In another exemplary experiment, the experiment is repeated with lentiviral vectors encoding FMC63- or hum-mROO5-1-based cTCR, Ab-TCR, TFPαβ and TFPγδ.
# RAJI cells were infected with the following lentiviral vectors encoding antigen masking receptors targeting CD19 and carrying protein degradation motifs FKBP12. […] RAJI cells were selected with puromycin and examined for CD19 expression by cell surface staining with FMC63 antibody. […] Subsequently, the cells were treated with dTAG-13 (100 nM) for 24-72 h to induce degradation of the AMR.
# [4] = test system: RAJI cells; assay: Killing of AMR-expressing RAJI cells by CD19-CAR-T cells or Blinatumomab; assay type: cell-based; conditions: exposure to dTAG-13
# Protocol: T cells mediated induction of lysis of target cells was assayed by increase of luciferase activity as measured by BioTek synergy plate reader by directly injecting 0.5×CTZ assay buffer containing native coeloentrazine (Nanaolight).
# [5] = target: CD19 (on RAJI cells) (UniProt P15391); assay: cell surface staining of control RAJI cells with FMC63 antibody, flow cytometry
# [6] = test system: NALM6 (B cell acute lymphocytic leukemia cells); assay: Infection of NALM6 cells by lentivirus encoding a non-FMC63 CD19 CAR; assay type: cell-based; conditions: CAR scFV derived from an antibody other than FMC63
# Protocol: The experiment in the preceding example is repeated using a lentiviral vector encoding a CD19 CAR (SEQ ID NO: 11920) comprising a scFV derived from an antibody other than FMC63 as its antigen-binding domain. The CAR is cloned in the pCCLc-MNDU3-WPRE lentiviral vector (SEQ ID NO: 3) and the resulting vector is packaged using VSVG as described in the preceding example. […] In contrast, incubation with Rituximab, a CD20 antibody, had no effect.
# [7] = Patient with cytokine release syndrome and neurological complications after haploidentical stem cell transplant; assay type: in vivo, human
# Protocol: A patient with myelofibroris receives haploidentical peripheral blood stem cell transplant using their child as a donor. The patient receives reduced intensity conditioning with Melphalan (100 mg/m2 on day −6), Fludarabine (25 mg/m2×4 on days −5 to −2) and total body irradiation (TBI) of 200 cGy on day −1. Following infusion of haploidentical stem cells on Day 0, the patient receives post-transplant Cyclophosphamide 50 mg/kg×2 on days+3 and +4 and intravenous hydration with normal saline at rate of 250 ml/h for 24 hours after the completion of cyclophosphamide.
# [8] = target: CD19 (on RAJI cells) (UniProt P15391); assay: cell-based or functional assay
# Chain of UniProt P15391 (P15391 20-556 limits assumed): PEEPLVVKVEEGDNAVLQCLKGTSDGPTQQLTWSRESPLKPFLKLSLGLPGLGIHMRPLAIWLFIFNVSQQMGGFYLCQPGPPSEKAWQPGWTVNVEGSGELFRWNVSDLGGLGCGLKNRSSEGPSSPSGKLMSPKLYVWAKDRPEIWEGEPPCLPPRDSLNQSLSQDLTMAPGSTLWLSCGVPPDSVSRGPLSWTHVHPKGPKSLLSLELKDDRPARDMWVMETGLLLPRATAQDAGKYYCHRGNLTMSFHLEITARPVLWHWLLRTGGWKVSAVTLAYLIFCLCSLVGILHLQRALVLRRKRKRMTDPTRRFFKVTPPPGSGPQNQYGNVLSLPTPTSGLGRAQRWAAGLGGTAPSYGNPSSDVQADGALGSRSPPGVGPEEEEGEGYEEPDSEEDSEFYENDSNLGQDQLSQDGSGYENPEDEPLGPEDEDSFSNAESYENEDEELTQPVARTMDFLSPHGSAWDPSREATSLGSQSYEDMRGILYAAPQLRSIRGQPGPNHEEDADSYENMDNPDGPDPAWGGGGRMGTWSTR
compound,measurement,setting,value
CC[C@H](C(=O)N1CCCC[C@H]1C(=O)O[C@H](CCc1ccc(OC)c(OC)c1)c1cccc(OCCN2CCOCC2)c1)c1cc(OC)c(OC)c(OC)c1 [Shield-1],"AMR fusion protein after ligand treatment is stopped, in vitro",[1]; Shield-1 treatment stopped,degradation of AMR fusion protein
same,CD33 AMR-ShieldTag fusion protein in animals after ligand treatment is stopped,[2]; Shield-1 treatment stopped,degradation of the CD33 AMR-ShieldTag fusion protein
CC[C@H](C(=O)N1CCCC[C@H]1C(=O)O[C@H](CCc1ccc(OC)c(OC)c1)c1ccccc1OCC(=O)NCCCCCCOc1cccc2c1C(=O)N(C1CCC(=O)NC1=O)C2=O)c1cc(OC)c(OC)c(OC)c1 (some centres unmarked) [dTAG-13],AMR fusion protein after ligand treatment in vitro,[1]; 100 nM,degradation of AMR fusion protein
same,induction of CD19 expression with increasing concentration,[3]; 1 pM to 100 nM,dose dependent induction
same,CD19 expression on AMR-expressing RAJI cells after ligand,"[3]; 100 nM for 24-72 h, FMC63-PE staining, before treatment […]",68.98%
same,AMR-dTAG fusion protein in animals after ligand,[2]; 25 mg/kg daily,degradation of the AMR-dTAG fusion protein
same,killing of AMR-expressing RAJI cells by CD19-CAR-T cells or Blinatumomab upon exposure to ligand,[4],sensitized
FMC63-PE mouse monoclonal antibody,% of control RAJI cells stained for CD19 by FMC63 antibody,[5],99.2%
Rituximab: a CD20 antibody,infection of NALM6 by the CD19 CAR (SEQ ID NO: 11920),[6],no effect
Tocilizumab: administered 600 mg i.v. for cytokine release syndrome,blood pressure,"[7]; 600 mg i.v. on day 5 after transplantation, patient with CRS after haploidentical stem cell transplant",stabilization of blood pressure
same,neurological / mental status,[7]; after Tocilizumab 600 mg i.v. on day 5 after transplantation,continues to have neurological deterioration
isotype control mouse IgG (antibody),% EGFP + RAJI Cells (infection with CD19 CAR lentivirus after incubation with Control IgG-PE),[8],29.6%
same,% EGFP + RAJI Cells (infection with CD19 CAR lentivirus after incubation with control IgG),[8],43.3%
same,% EGFP + RAJI Cells (infection with the negative control MSLN-237-HL mesothelin CAR lentivirus after incubation with Control IgG-PE),[8],20.4%
